Reference: patent publication US11407719B2, “Anti-inflammatory agents” (Resverlogix Corp., priority 2009, dated 2022)

How the values were obtained:
[1] = tested on: hIL-6 mRNA; experiment: Quantification of hIL-6 mRNA; type: cell-based, human; parameters: key: Active: an active compound is one that causes a ≥20% inhibition in IL-6 mRNA at a concentration less than or equal to 10 μM; settings: IL-6 mRNA by real-time PCR; differentiated U937 cells, 1 h pretreatment, lipopolysaccharide stimulation 3 h; concentration ≤10 μM
Description: In this example, […] in tissue culture cells was quantitated to measure the transcriptional inhibition of hIL-6 when treated with a compound of the invention.
A human leukemic monocyte lymphoma cell line (U937) was plated (3.2×10^5 cells per well) in a 96-well plate in 100 μL RPMI-1640, and differentiated for 3 days prior to the addition of the compound of interest. The cells were pretreated for 1 h with the test compound prior to stimulation with lipolysaccharide from Escherichia coli. The cells were incubated at 37° C. for 3 h before the cells were harvested. At time of harvest, the spent media was removed from the cells and the cells were rinsed in 200 μL PBS. Cell lysis solution (70 μL) was added the cells in each well and incubated for 5-10 min at room temperature, to allow for complete cell lysis and detachment. mRNA was then prepared using the “mRNA Catcher PLUS plate” (Invitrogen), according to the protocol supplied. After the last wash, as much wash buffer as possible was aspirated without allowing the wells to dry. Elution buffer (E3, 70 μL) was then added to each well. mRNA was then eluted by incubating the mRNA Catcher PLUS plate with Elution Buffer for 5 min at 68° C. and then immediately placing the plate on ice.
(§1) The eluted mRNA isolated was then used in a one-step quantitative real-time PCR reaction, using components of the Ultra Sense Kit together with Applied Biosystems primer-probe mixes. Real-time PCR data was analyzed, normalizing the Ct values for hIL-6 to an internal control, prior to determining the fold induction of each unknown sample, relative to the control.

[2] = tested on: VCAM-1 mRNA; experiment: Quantification of hVCAM mRNA; type: cell-based, human; parameters: key: Active: an active compound is one that causes a ≥20% inhibition in VCAM-1 mRNA at a concentration less than or equal to 10 μM; -1 mRNA at a concentration less than or equal to 10 μM; settings: VCAM-1 mRNA by real-time PCR; HUVECs, 1 h pretreatment, tumor necrosis factor-α stimulation 24 h; concentration ≤10 μM
Description: In this example, […] in tissue culture cells was quantitated to measure the transcriptional inhibition of hVCAM when treated with a compound of the invention.
Human umbilical vein endothelial cells (HUVECs) were plated in a 96-well plate (4.0×10^3 cells/well) in 100 μL EGM media and incubated for 24 h prior to the addition of the compound of interest. The cells were pretreated for 1 h with the test compound prior to stimulation with tumor necrosis factor-α. The cells were incubated for an additional 24 h before the cells were harvested. At time of harvest, the spent media was removed from the HUVECs and rinsed in 200 μL PBS. Cell lysis solution (70 μL) was then added the cells in each well and incubated for ˜5-10 min at room temperature, to allow for complete cell lysis and detachment. mRNA was then prepared using the “mRNA Catcher PLUS plate” (Invitrogen), according to the protocol supplied. After the last wash, as much wash buffer as possible was aspirated without allowing the wells to dry. Elution buffer (E3, 70 μL) was then added to each well. mRNA was then eluted by incubating the mRNA Catcher PLUS plate with elution buffer for 5 min at 68° C. and then immediately placing the plate on ice.
as §1, with “mRNA so” for “mRNA”, “hVCAM” for “hIL-6”

SMILES: COc1cc(OC)c2c(=O)[nH]c(-c3cc(C)c(OCCN4CC(NC(C)=O)C4)c(C)c3)nc2c1 [N-(1-(2-(4-(5,7-Dimethoxy-4-oxo-3,4-dihydroquinazolin-2-yl)-2,6-dimethylphenoxy)ethyl)azetidin-3-yl)acetamide]
- melting point: 111.8 to 113.6 °C
- Inhibition of IL-6 expression [1]: Active

SMILES: COCCOc1cc(OC)c2c(=O)[nH]c(-c3ccc(N4C[C@@H](C)N(C(C)=O)[C@@H](C)C4)cc3)nc2c1 [2-(4-((3R,5S)-4-Acetyl-3,5-dimethylpiperazin-1-yl)phenyl)-5-methoxy-7-(2-methoxyethoxy)quinazolin-4(3H)-one]
- melting point: 225 to 227 °C
- Inhibition of IL-6 expression [1]: Active

SMILES: COc1cc(OC)c2c(=O)[nH]c(-c3ccc(N4C[C@@H](C)N(C(C)=O)[C@@H](C)C4)cc3)nc2c1 [2-(4-((3R,5S)-4-Acetyl-3,5-dimethylpiperazin-1-yl)phenyl)-5,7-dimethoxyquinazolin-4(3H)-one]
- Inhibition of VCAM-1 expression [2]: Active
- Inhibition of IL-6 expression [1]: Active

SMILES: COc1cc2nc(-c3ccc(N(C)C)c4ccccc34)[nH]c(=O)c2cc1OC [2-(4-(dimethylamino)naphthalen-1-yl)-6,7-dimethoxyquinazolin-4(3H)-one]
- Inhibition of VCAM-1 expression [2]: Active
- Inhibition of IL-6 expression [1]: Active

SMILES: COc1cc(OC)c2c(=O)[nH]c(-c3ccc(N4CCN(C(=O)c5cnn(C)c5Cl)CC4)cc3)nc2c1 [2-(4-(4-(5-Chloro-1-methyl-1H-pyrazole-4-carbonyl)piperazin-1-yl)phenyl)-5,7-dimethoxyquinazolin-4(3H)-one]
- Inhibition of VCAM-1 expression [2]: Active
- Inhibition of IL-6 expression [1]: Active

SMILES: COc1cc(OC)c2c(=O)[nH]c(-c3ccc4[nH]c(CN5CCCC5)cc4c3)nc2c1 [5,7-Dimethoxy-2-(2-(pyrrolidin-1-ylmethyl)-1H-indol-5-yl)quinazolin-4(3H)-one]
- Inhibition of VCAM-1 expression [2]: Active
- Inhibition of IL-6 expression [1]: Active

SMILES: CCCCN1CCN(c2ccc(-c3nc4cc(OC)cc(OC)c4c(=O)[nH]3)cc2)CC1 [2-(4-(4-butylpiperazin-1-yl)phenyl)-5,7-dimethoxyquinazolin-4(3H)-one]
- Inhibition of VCAM-1 expression [2]: Active
- Inhibition of IL-6 expression [1]: Active

SMILES: COc1cc(OC)c2c(=O)[nH]c(-c3ccc(N4CCC(NC(=O)c5ccccc5)CC4)cc3)nc2c1 [N-(1-(4-(5,7-Dimethoxy-4-oxo-3,4-dihydroquinazolin-2-yl)phenyl)piperidin-4-yl)benzamide]
- Inhibition of VCAM-1 expression [2]: Active
- Inhibition of IL-6 expression [1]: Active

SMILES: Cc1cc(-c2nc3ccccc3c(=O)[nH]2)cc(C)c1OCCN1CCOCC1 [2-(3,5-dimethyl-4-(2-morpholinoethoxy)phenyl)quinazolin-4(3H)-one]
- Inhibition of VCAM-1 expression [2]: Active
- Inhibition of IL-6 expression [1]: Active

SMILES: COc1cc(OC)c2c(=O)[nH]c(-c3ccc(N4CCN(C(C)=O)C(C)C4)cc3)nc2c1 (stereo not shown) [2-(4-(4-Acetyl-3-methylpiperazin-1-yl)phenyl)-5,7-dimethoxyquinazolin-4(3H)-one]
- Inhibition of VCAM-1 expression [2]: Active
- Inhibition of IL-6 expression [1]: Active

SMILES: COc1cc(OC)c2c(=O)[nH]c(-c3ccc(N4CCN(CCO)CC4)cc3)nc2c1 [2-(4-(4-(2-hydroxyethyl)piperazin-1-yl)phenyl)-5,7-dimethoxyquinazolin-4(3H)-one]
- Inhibition of VCAM-1 expression [2]: Active
- Inhibition of IL-6 expression [1]: Active

SMILES: Cc1cc(-c2nc3cc(F)cc(F)c3c(=O)[nH]2)cc(C)c1OCCN1CCCC1 [2-(3,5-Dimethyl-4-(2-(pyrrolidin-1-yl)ethoxy)phenyl)-5,7-difluoroquinazolin-4(3H)-one]
- Inhibition of VCAM-1 expression [2]: Active
- Inhibition of IL-6 expression [1]: Active

SMILES: COc1cc(OC)c2c(=O)[nH]c(-c3ccc(N4CCN(C(=O)c5cc(Cl)sc5Cl)CC4)cc3)nc2c1 [2-(4-(4-(2,5-Dichlorothiophene-3-carbonyl)piperazin-1-yl)phenyl)-5,7-dimethoxyquinazolin-4(3H)-one]
- Inhibition of VCAM-1 expression [2]: Active
- Inhibition of IL-6 expression [1]: Active

SMILES: COc1cc(OC)c2c(=O)[nH]c(-c3ccc(N4CCN(C(C)C)CC4)cc3)nc2c1 [2-(4-(4-Isopropylpiperazin-1-yl)phenyl)-5,7-dimethoxyquinazolin-4(3H)-one]
- Inhibition of VCAM-1 expression [2]: Active
- Inhibition of IL-6 expression [1]: Active

SMILES: COc1cc(OC)c2c(=O)[nH]c(-c3ccc4[nH]c(CCN5CCCC5)cc4c3)nc2c1 [5,7-Dimethoxy-2-(2-(2-(pyrrolidin-1-yl)ethyl)-1H-indol-5-yl)quinazolin-4(3H)-one]
- Inhibition of VCAM-1 expression [2]: Active
- Inhibition of IL-6 expression [1]: Active

SMILES: COc1cc(OC)c2c(=O)[nH]c(-c3cc(C)c(OCCN4CCCC4)c(C)c3)nc2c1 [2-(3,5-dimethyl-4-(2-(pyrrolidin-1-yl)ethoxy)phenyl)-5,7-dimethoxyquinazolin-4(3H)-one]
- Inhibition of VCAM-1 expression [2]: Active
- Inhibition of IL-6 expression [1]: Active

SMILES: COc1cc(OC)c2c(=O)[nH]c(-c3ccc(N4CCCN(C)CC4)cc3)nc2c1 [5,7-Dimethoxy-2-(4-(4-methyl-1,4-diazepan-1-yl)phenyl)quinazolin-4(3H)-one]
- Inhibition of VCAM-1 expression [2]: Active
- Inhibition of IL-6 expression [1]: Active

SMILES: CCN(C(C)=O)C1CCN(c2ccc(-c3nc4cc(OC)cc(OC)c4c(=O)[nH]3)cc2)CC1 [N-(1-(4-(5,7-Dimethoxy-4-oxo-3,4-dihydroquinazolin-2-yl)phenyl)piperidin-4-yl)-N-ethylacetamide]
- Inhibition of VCAM-1 expression [2]: Active
- Inhibition of IL-6 expression [1]: Active

SMILES: COc1cc(OC)cc(-c2nc3cc(OC)cc(OC)c3c(=O)[nH]2)c1 [2-(3,5-dimethoxyphenyl)-5,7-dimethoxyquinazolin-4(3H)-one]
- Inhibition of VCAM-1 expression [2]: Active
- Inhibition of IL-6 expression [1]: Active

SMILES: COc1cccc(-c2nc3cc(OC)cc(OC)c3c(=O)[nH]2)c1 [5,7-Dimethoxy-2-(3-methoxyphenyl)quinazolin-4(3H)-one]
- Inhibition of VCAM-1 expression [2]: Active
- Inhibition of IL-6 expression [1]: Active

SMILES: COc1cccc2c(=O)[nH]c(-c3ccc(N4CCN(C(C)C)CC4)cc3)nc12 [2-(4-(4-Isopropylpiperazin-1-yl)phenyl)-8-methoxyquinazolin-4(3H)-one]
- Inhibition of VCAM-1 expression [2]: Active
- Inhibition of IL-6 expression [1]: Active

SMILES: COc1cc(OC)c2c(=O)[nH]c(-c3ccc(N4CCC(NC(C)=O)C4)cc3)nc2c1 (stereo not shown) [N-(1-(4-(5,7-Dimethoxy-4-oxo-3,4-dihydroquinazolin-2-yl)phenyl)pyrrolidin-3-yl)acetamide]
- Inhibition of VCAM-1 expression [2]: Active
- Inhibition of IL-6 expression [1]: Active

SMILES: COc1cc(OC)c2c(=O)[nH]c(-c3ccc(N4CCNCC4)cc3)nc2c1 [5,7-Dimethoxy-2-(4-(piperazin-1-yl)phenyl)quinazolin-4(3H)-one]
- Inhibition of VCAM-1 expression [2]: Active
- Inhibition of IL-6 expression [1]: Active

SMILES: COc1cc(OC)c2c(=O)[nH]c(-c3cc(C)c(OCCN4C(=O)c5ccccc5C4=O)c(C)c3)nc2c1 [2-(2-(4-(5,7-dimethoxy-4-oxo-3,4-dihydroquinazolin-2-yl)-2,6-dimethylphenoxy)ethyl)isoindoline-1,3-dione]
- Inhibition of VCAM-1 expression [2]: Active
- Inhibition of IL-6 expression [1]: Active

SMILES: COCCOc1cc(OC)cc2nc(-c3cc(C)nc(C)c3)[nH]c(=O)c12 [2-(2,6-Dimethylpyridin-4-yl)-7-methoxy-5-(2-methoxyethoxy)quinazolin-4(3H)-one]
- Inhibition of VCAM-1 expression [2]: Inactive
- Inhibition of IL-6 expression [1]: Active

SMILES: COc1cc(OC)c2c(=O)[nH]c(-c3ccc(N4CCC(NC(C)=O)CC4)cc3)nc2c1 [N-(1-(4-(5,7-Dimethoxy-4-oxo-3,4-dihydroquinazolin-2-yl)phenyl)piperidin-4-yl)acetamide]
- Inhibition of VCAM-1 expression [2]: Active
- Inhibition of IL-6 expression [1]: Active
